From patent US9139567B2, “Arylpyrazole ethers as inhibitors of leukotriene A4 hydrolase” (Boehringer Ingelheim International GmbH, priority 2011, dated 2015)

Tests used:
human LTA4 hydrolase = molecular target: T1, human LTA4 hydrolase (Homo sapiens, UniProt P09960); assay: LTA4H enzyme assay (cleavage of Arg-AMC, fluorescence); format: biochemical; conditions: LTA4H enzyme 1 nM, Arg-AMC substrate 50 μM, room temperature 1 h
T1 sequence (P09960 1-611): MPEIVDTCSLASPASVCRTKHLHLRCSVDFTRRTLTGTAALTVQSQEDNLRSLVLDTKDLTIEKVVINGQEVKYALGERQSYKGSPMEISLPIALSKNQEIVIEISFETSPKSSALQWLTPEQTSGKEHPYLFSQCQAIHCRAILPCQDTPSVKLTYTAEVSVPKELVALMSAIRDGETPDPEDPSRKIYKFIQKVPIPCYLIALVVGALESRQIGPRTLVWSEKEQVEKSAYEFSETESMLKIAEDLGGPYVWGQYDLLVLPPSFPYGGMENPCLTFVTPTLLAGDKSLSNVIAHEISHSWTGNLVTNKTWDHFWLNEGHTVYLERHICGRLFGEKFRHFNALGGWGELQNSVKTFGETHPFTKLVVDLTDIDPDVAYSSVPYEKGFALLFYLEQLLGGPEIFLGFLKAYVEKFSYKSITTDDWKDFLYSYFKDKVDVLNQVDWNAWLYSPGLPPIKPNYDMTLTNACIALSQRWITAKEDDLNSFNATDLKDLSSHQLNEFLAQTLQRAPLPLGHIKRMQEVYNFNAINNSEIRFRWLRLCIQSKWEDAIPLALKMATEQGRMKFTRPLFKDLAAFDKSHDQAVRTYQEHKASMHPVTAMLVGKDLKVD
Description: Compounds are assessed for the ability to interact with human LTA4 hydrolase in an enzymatic assay that measures the ability of the enzyme to cleave the peptide bond of arginyl-aminomethylcoumarin (Arg-AMC). LTA4H Enzyme (1 nM final), Arg-AMC substrate (50 μM final), and compound are combined in a reaction buffer (50 mM Tris-HCl (pH 7.5), 100 mM KCl, 0.5% bovine serum albumin) at room temperature for 1 h. The formation of product is assessed by measuring the fluorescence of aminomethylcoumarin product (excitation wavelength 380 nm/emission wavelength 460 nm).

[1] = system: LTB4 production in human whole blood; assay: LTB4 production inhibition assay in human whole blood (calcimycin-stimulated); format: cell-based; conditions: heparinized human whole blood, 15 min 37° C., calcimycin 20 μM 30 min, plasma LTB4 by HTRF
Description: Compounds of the invention are additionally tested in a human whole blood assay to determine their ability to inhibit the synthesis of LTB4 in a cellular system. Compounds are combined with heparinized human whole blood and incubated for 15 minutes at 37° C. Calcimycin (20 μM final, prepared in phosphate-buffered saline, pH 7.4) is then added and the mixture is incubated for another 30 minutes at 37° C. The samples are centrifuged for 5 min at low speed (1500×g) and the plasma layer is removed. Plasma LTB4 concentrations are then measured using an antibody-based homogenous time-resolved fluorescence method (CisBio, Bedford, Mass.).

IC50 (human LTA4 hydrolase) [nM]	IC50 [1] [nM]	Structure (SMILES)
12.9	≥ 5000	Cn1ccc(COc2ccc(Oc3ccc(-c4ccn[nH]4)cc3)cc2)n1 [Example 65, 1-methyl-3-({4-[4-(1H-pyrazol-5-yl)phenoxy]phenoxy}methyl)-1H-pyrazole]
959	≥ 5000	c1ccc(CCOc2ccc(Oc3ccc(-c4ccn[nH]4)cc3)cc2)cc1 [Example 66, 5-{4-[4-(2-phenylethoxy)phenoxy]phenyl}-1H-pyrazole]
11.2	≥ 5000	Cc1ncsc1CCOc1ccc(Oc2ccc(-c3ccn[nH]3)cc2)cc1 [Example 67, 4-Methyl-5-(2-{4-[4-(2H-pyrazol-3-yl)-phenoxy]-phenoxy}-ethyl)-thiazole]
820	≥ 5000	c1csc(CCOc2ccc(Oc3ccc(-c4ccn[nH]4)cc3)cc2)c1 [Example 68, 5-(4-{4-[2-(2-thienyl)ethoxy]phenoxy}phenyl)-1H-pyrazole]
65.3	≥ 5000	c1cc(-c2ccc(Oc3ccc(OCc4ccsc4)cc3)cc2)[nH]n1 [Example 69, 5-{4-[4-(3-thienylmethoxy)phenoxy]phenyl}-1H-pyrazole]
4.9	2390	c1cc(-c2ccc(Oc3ccc(OCc4cncs4)cc3)cc2)[nH]n1 [Example 70, 5-({4-[4-(1H-pyrazol-5-yl)phenoxy]phenoxy}methyl)-1,3-thiazole]
59.5	≥ 5000	c1cc(-c2ccc(Oc3ccc(OCc4ccc5ncsc5c4)cc3)cc2)[nH]n1 [Example 71, 6-({4-[4-(1H-pyrazol-5-yl)phenoxy]phenoxy}methyl)-1,3-benzothiazole]
6.1	2550	c1cc(-c2ccc(Oc3ccc(OCCc4cnoc4)cc3)cc2)[nH]n1 [Example 72, 4-(2-{4-[4-(1H-pyrazol-5-yl)phenoxy]phenoxy}ethyl)isoxazole]
10.4	4100	c1cc(-c2ccc(Oc3ccc(OCc4nccs4)cc3)cc2)[nH]n1 [Example 73, 2-({4-[4-(1H-pyrazol-5-yl)phenoxy]phenoxy}methyl)-1,3-thiazole]
17.9	2550	Cc1ncoc1COc1ccc(Oc2ccc(-c3ccn[nH]3)cc2)cc1 [Example 74, 4-methyl-5-({4-[4-(1H-pyrazol-5-yl)phenoxy]phenoxy}methyl)-1,3-oxazole]
6.6	2840	c1cnc(COc2ccc(Oc3ccc(-c4ccn[nH]4)cc3)cc2)nc1 [Example 75, 2-({4-[4-(1H-pyrazol-5-yl)phenoxy]phenoxy}methyl)pyrimidine]
0.9	1420	c1cc(-c2ccc(Oc3ccc(OCc4ccc5nccn5c4)cc3)cc2)[nH]n1 [Example 76, 6-({4-[4-(1H-pyrazol-5-yl)phenoxy]phenoxy}methyl)imidazo[1,2-a]pyridine]
1	492	Cc1nnsc1COc1ccc(Oc2ccc(-c3ccn[nH]3)cc2)cc1 [Example 77, 4-Methyl-5-{4-[4-(2H-pyrazol-3-yl)-phenoxy]-phenoxymethyl}-[1,2,3]thiadiazole]
2.8	1650	c1cc(-c2ccc(Oc3ccc(OCc4cnco4)cc3)cc2)[nH]n1 [Example 78, 5-({4-[4-(1H-pyrazol-5-yl)phenoxy]phenoxy}methyl)-1,3-oxazole]
2.7	2110	CC(COc1ccc(Oc2ccc(-c3ccn[nH]3)cc2)cc1)Cn1cccn1 (centres unmarked) [Example 79, 1-(2-methyl-3-{4-[4-(1H-pyrazol-5-yl)phenoxy]phenoxy}propyl)-1H-pyrazole]
1.9	1650	c1cnn(-c2ccc(COc3ccc(Oc4ccc(-c5ccn[nH]5)cc4)cc3)cn2)c1 [Example 80, 2-(1H-pyrazol-1-yl)-5-({4-[4-(1H-pyrazol-5-yl)phenoxy]phenoxy}methyl)pyridine]

IC50 (human LTA4 hydrolase) [nM]	IC50 [1] [nM]	Structure (SMILES)
14.2	≥ 5000	c1cc(-c2ccc(Oc3ccc(OCc4ccc5[nH]cnc5c4)cc3)cc2)[nH]n1 [Example 81, 5-({4-[4-(1H-pyrazol-5-yl)phenoxy]phenoxy}methyl)-1H-benzimidazole]
7.9	2670	c1cc(-c2ccc(Oc3ccc(OCCC4CCOCC4)cc3)cc2)[nH]n1 [Example 82, 5-(4-{4-[2-(tetrahydro-2H-pyran-4-yl)ethoxy]phenoxy}phenyl)-1H-pyrazole]
2.9	1740	c1cc(-c2ccc(Oc3ccc(OCC4CCCOC4)cc3)cc2)[nH]n1 (centres unmarked) [Example 83, 5-{4-[4-(tetrahydro-2H-pyran-3-ylmethoxy)phenoxy]phenyl}-1H-pyrazole]
4.6	1460	c1cc(-c2ccc(Oc3ccc(OCC4CCOCC4)cc3)cc2)[nH]n1 [Example 84, 5-{4-[4-(tetrahydro-2H-pyran-4-ylmethoxy)phenoxy]phenyl}-1H-pyrazole]
0.8	≥ 5000	O=C1CC[C@H](COc2ccc(Oc3ccc(-c4ccn[nH]4)cc3)cc2)O1 [Example 85, (5R)-5-({4-[4-(1H-pyrazol-5-yl)phenoxy]phenoxy}methyl)dihydrofuran-2(3H)-one]
0.8	4500	O=C1CC[C@@H](COc2ccc(Oc3ccc(-c4ccn[nH]4)cc3)cc2)O1 [Example 86, (5S)-5-({4-[4-(1H-pyrazol-5-yl)phenoxy]phenoxy}methyl)dihydrofuran-2(3H)-one]
23.1	≥ 5000	O=C1OCC[C@@H]1Oc1ccc(Oc2ccc(-c3ccn[nH]3)cc2)cc1 [Example 87, (3S)-3-{4-[4-(1H-pyrazol-5-yl)phenoxy]phenoxy}dihydrofuran-2(3H)-one]
16.4	≥ 5000	O=C1OCC[C@H]1Oc1ccc(Oc2ccc(-c3ccn[nH]3)cc2)cc1 [Example 88, (3R)-3-{4-[4-(1H-pyrazol-5-yl)phenoxy]phenoxy}dihydrofuran-2(3H)-one]
4.8	1770	c1cc(-c2ccc(Oc3ccc(OC4CCOCC4)cc3)cc2)[nH]n1 [Example 89, 5-{4-[4-(tetrahydro-2H-pyran-4-yloxy)phenoxy]phenyl}-1H-pyrazole]
2.4	777	c1cc(-c2ccc(Oc3ccc(O[C@H]4CCOC4)cc3)cc2)[nH]n1 [Example 90, 5-(4-{4-[(3S)-tetrahydrofuran-3-yloxy]phenoxy}phenyl)-1H-pyrazole]
10.7	≥ 5000	c1cc(-c2ccc(Oc3ccc(OCC4CCCCO4)cc3)cc2)[nH]n1 (centres unmarked) [Example 91, 5-{4-[4-(tetrahydro-2H-pyran-2-ylmethoxy)phenoxy]phenyl}-1H-pyrazole]
3.3	1200	c1cc(-c2ccc(Oc3ccc(OCC4CCOC4)cc3)cc2)[nH]n1 (centres unmarked) [Example 92, 5-{4-[4-(tetrahydrofuran-3-ylmethoxy)phenoxy]phenyl}-1H-pyrazole]
26.9	4600	c1cc(-c2ccc(Oc3ccc(OCCC4CCCCO4)cc3)cc2)[nH]n1 (centres unmarked) [Example 93, 5-(4-{4-[2-(tetrahydro-2H-pyran-2-yl)ethoxy]phenoxy]phenyl)-1H-pyrazole]
14.1	2000	c1cc(-c2ccc(Oc3ccc(OC4CCCOC4)cc3)cc2)[nH]n1 (centres unmarked) [Example 94, 5-{4-[4-(tetrahydro-2H-pyran-3-yloxy)phenoxy]phenyl}-1H-pyrazole]
1.6	367	O=C1CC[C@@H](Oc2ccc(Oc3ccc(-c4ccn[nH]4)nc3)cc2)CN1 [Example 95, (5R)-5-(4-{[6-(1H-pyrazol-5-yl)pyridin-3-yl]oxy}phenoxy)piperidin-2-one]
